In PubChem BioAssay AID1963837 (Molecular Pharmacology Branch, DTP, NCI, 2024):

Tested on: 843126-344-R-J1-PDC complex spheroid viability
Experiment: Anticancer human tumor 843126-344-R-J1-PDC patient-derived melanoma cell line growth inhibition [POLQ]
Conditions: for IC50: curve of first compound; for viability, T/C: stronger effect = lower value
Protocol: Multicellular complex tumor spheroid response to Polymerase (POL) inhibitors (novobiocin, ART-558, RP6685) in combination with a variety of drugs and investigational agents in selected tumor cell lines
The POL inhibitors (novobiocin, ART-558, and RP6685) were evaluated both individually and in combination with standard of care and investigational anticancer small molecules within a complex spheroid model of solid tumors. . Complex spheroids include a stromal component modeled by human endothelial cells (HUVEC) and fibroblasts modeled by human mesenchymal stem cells (MSCs). The concentration ranges selected for each drug and investigational agent were based upon clinically achievable concentrations if the clinical Cmax of the agent was known.
Compounds. The drugs and investigational agents: novobiocin (NSC847541), ART-558 (NSC835418), RP-6685 (NSC848927), peposertib (NSC802822), ceralasertib (NSC780249), elimusertib (NSC800525), camonsertib (NSC841442), AZD-1390 (NSC803789), olaparib (NSC753686), talazoparib (NSC767125), rucaparib (NSC756644), sotorasib (NSC818433), MRTX-1133 (NSC836407), SN-38 (NSC673596), topotecan (NSC609699), epotoside (NSC141540), doxorubicin (NSC123127), gemcitabine (NSC613327), 5-fluorouracil (NSC19893), paclitaxel (NSC125973), vemurafenib (NSC761431), MSA-2 (NSC828583), SN-011 (NSC837082), adavosertib (NSC754352), prexasertib (NSC758257), carboplatin (NSC241240) and oxaliplatin (NSC266046), were obtained from the National Cancer Institute (NCI) Developmental Therapeutics Program Chemical Repository (21). The FDA-approved anticancer drug set is available from the Developmental Therapeutics Program at https://dtp.cancer.gov/organization/dscb/obtaining/. […] The stock solutions were prepared in dimethyl sulfoxide (DMSO, Sigma-Aldrich, St. Louis, MO, cat. D2650), except for the platinum compounds which were prepared in saline (Quality Biological, Gaithersburg, MD, cat. 114-055-101), at 800-fold the tested concentration and stored at -70 degrees C prior to their use. All drugs and investigational agents were tested over a range starting from a high concentration at or near the clinical Cmax and decreasing in half-log increments. If the clinical Cmax for an agent had not been determined, the highest concentration tested was 10 microM, except for SN-38, which was tested at a high concentration of 1 microM.
Cell Culture. All cells were maintained in an incubator at 37 degrees C and 5% CO2 with 95% humidity. The PDC lines were cultured according to standard operating procedures established by the NCI PDMR (https://pdmr.cancer.gov). Table 3 of the manuscript, lists the cell lines along with the number of the three cell types plated to form the mct-spheroids and media for tumor cell growth. After thawing, all PDC lines, except 997537-175-T-J1-PDC and 415267-285-R-J2-PDC, were cultured in Matrigel-coated flasks prepared with a working solution of 1X Ham's F-12 nutrient mix, without supplementation (Thermo Fisher Scientific, cat. 11765054), 100 U/mL penicillin-streptomycin (Thermo Fisher Scientific, cat. 15140122), and 2.5% Matrigel (Corning Inc., Corning, NY, cat. 354248) for the first three passages. The two PDC lines 997537-175-T-J1-PDC and 415267-285-R-J2-PDC were cultured on uncoated flasks. The 857933-349-R-J2-PDC line was cultured in 6C/Colon 1B media containing advanced DMEM/F-12 (Thermo Fisher Scientific, cat. 12634028), 10 mM HEPES (Thermo Fisher Scientific, cat. 15630080), 1X GlutaMAX supplement (Thermo Fisher Scientific, cat. 35050061), 0.1 mg/mL primocin (InvivoGen, San Diego, CA, cat. ant-pm-2), 10% defined fetal bovine serum, heat inactivated (HyClone Laboratories Inc., Logan, UT, cat. SH30070.03HI), 50% L-WRN conditioned media (ATCC, cat. CRL-3276), 1.25 mM N-Acetyl-L-cysteine (Sigma-Aldrich, cat. A9165), 10 mM nicotinamide (Sigma-Aldrich, cat. N0636), 1X B-27 supplement (Thermo Fisher Scientific, cat. 17504044), 1X N-2 supplement (Thermo Fisher Scientific, cat. […]

[1] = second compound 0.0316 µM, first compound 0.0316 µM
[2] = second compound 0.0316 µM, first compound 0.1 µM
[3] = second compound 0.0316 µM, first compound 0.316 µM
[4] = second compound 0.0316 µM, first compound 1 µM
[5] = second compound 0.0316 µM, first compound 3.16 µM
[6] = second compound 0.0316 µM, first compound 10 µM
[7] = second compound 0.1 µM, first compound 0.0316 µM
[8] = second compound 0.1 µM, first compound 0.1 µM
[9] = second compound 0.1 µM, first compound 0.316 µM
[10] = second compound 0.1 µM, first compound 1 µM
[11] = second compound 0.1 µM, first compound 3.16 µM
[12] = second compound 0.1 µM, first compound 10 µM
[13] = second compound 0.316 µM, first compound 0.0316 µM
[14] = second compound 0.316 µM, first compound 0.1 µM
[15] = second compound 0.316 µM, first compound 0.316 µM
[16] = second compound 0.316 µM, first compound 1 µM
[17] = second compound 0.316 µM, first compound 3.16 µM
[18] = second compound 0.316 µM, first compound 10 µM
[19] = second compound 1 µM, first compound 0.0316 µM
[20] = second compound 1 µM, first compound 0.1 µM
[21] = second compound 1 µM, first compound 0.316 µM
[22] = second compound 1 µM, first compound 1 µM
[23] = second compound 1 µM, first compound 3.16 µM
[24] = second compound 1 µM, first compound 10 µM
[25] = second compound 3.16 µM, first compound 0.0316 µM
[26] = second compound 3.16 µM, first compound 0.1 µM
[27] = second compound 3.16 µM, first compound 0.316 µM
[28] = second compound 3.16 µM, first compound 1 µM
[29] = second compound 3.16 µM, first compound 3.16 µM
[30] = second compound 3.16 µM, first compound 10 µM
[31] = second compound 10 µM, first compound 0.0316 µM
[32] = second compound 10 µM, first compound 0.1 µM
[33] = second compound 10 µM, first compound 0.316 µM
[34] = second compound 10 µM, first compound 1 µM
[35] = second compound 10 µM, first compound 3.16 µM
[36] = second compound 10 µM, first compound 10 µM
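For viability, T/C in this document: spheroids exposed to drugs for seven days before readout.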

Compound `COc1ccc([C@@H](O)c2cc(-c3ncnc4cc(N5CCOCC5)ccc34)c(F)cc2Cl)nn1` + COC1C(OC(N)=O)C(O)C(Oc2ccc3c(O)c(NC(=O)c4ccc(O)c(CC=C(C)C)c4)c(=O)oc3c2C)OC1(C)C has an IC50 (second compound 0.0316 µM) of over 10 µM, an IC50 (second compound 0.1 µM) of over 10 µM and an IC50 (second compound 0.316 µM) of 7.08 µM. For the same compound, the IC50 (second compound 1 µM) was over 10 µM, the IC50 (second compound 3.16 µM) was over 10 µM and the IC50 (second compound 10 µM) was 9.31 µM. The viability, T/C [1] was 116%, the viability, T/C [2] was 82.3% and the viability, T/C [3] was 105%. For the same compound, the viability, T/C [4] was 84.7%, the viability, T/C [5] was 85.7% and the viability, T/C [6] was 53.4%. For the same compound, the viability, T/C [7] was 85.8%, the viability, T/C [8] was 85.7% and the viability, T/C [9] was 116%. For the same compound, the viability, T/C [10] was 79.5%, the viability, T/C [11] was 81.6% and the viability, T/C [12] was 54.1%. For the same compound, the viability, T/C [13] was 93.4%, the viability, T/C [14] was 98.2% and the viability, T/C [15] was 92.8%. It also gave a viability, T/C [16] of 89%, a viability, T/C [17] of 63% and a viability, T/C [18] of 44.4%. For the same compound, the viability, T/C [19] was 95.8%, the viability, T/C [20] was 80.1% and the viability, T/C [21] was 92.8%. For the same compound, the viability, T/C [22] was 91%, the viability, T/C [23] was 85.6% and the viability, T/C [24] was 54.9%. The viability, T/C [25] was 87.8%, the viability, T/C [26] was 102% and the viability, T/C [27] was 90.3%. The viability, T/C [28] was 73.8%, the viability, T/C [29] was 85% and the viability, T/C [30] was 49.9%. The viability, T/C [31] was 87%, the viability, T/C [32] was 76% and the viability, T/C [33] was 109%. The viability, T/C [34] was 76%, the viability, T/C [35] was 69.6% and the viability, T/C [36] was 48.5%.
`O=C(Nc1ccc(O)c(NS(=O)(=O)c2ccc(F)cc2)c1)c1ccc(-c2ccccc2)cc1` + COC1C(OC(N)=O)C(O)C(Oc2ccc3c(O)c(NC(=O)c4ccc(O)c(CC=C(C)C)c4)c(=O)oc3c2C)OC1(C)C gave an IC50 (second compound 0.0316 µM) of over 10 µM, an IC50 (second compound 0.1 µM) of over 10 µM and an IC50 (second compound 0.316 µM) of over 10 µM. It also gave an IC50 (second compound 1 µM) of over 10 µM, an IC50 (second compound 3.16 µM) of over 10 µM and an IC50 (second compound 10 µM) of over 10 µM. For the same compound, the viability, T/C [1] was 118%, the viability, T/C [2] was 105% and the viability, T/C [3] was 100%. For the same compound, the viability, T/C [4] was 119%, the viability, T/C [5] was 99% and the viability, T/C [6] was 69.4%. For the same compound, the viability, T/C [7] was 94.3%, the viability, T/C [8] was 93.8% and the viability, T/C [9] was 119%. The viability, T/C [10] was 99.6%, the viability, T/C [11] was 87.9% and the viability, T/C [12] was 61.9%. For the same compound, the viability, T/C [13] was 92.8%, the viability, T/C [14] was 98.3% and the viability, T/C [15] was 113%. It also gave a viability, T/C [16] of 95.5%, a viability, T/C [17] of 91.8% and a viability, T/C [18] of 73.1%. The viability, T/C [19] was 90.9%, the viability, T/C [20] was 85.3% and the viability, T/C [21] was 91.9%. For the same compound, the viability, T/C [22] was 98.9%, the viability, T/C [23] was 112% and the viability, T/C [24] was 89.3%. It also gave a viability, T/C [25] of 95.5%, a viability, T/C [26] of 93.9% and a viability, T/C [27] of 92.9%. The viability, T/C [28] was 93.8%, the viability, T/C [29] was 89.4% and the viability, T/C [30] was 76.3%. For the same compound, the viability, T/C [31] was 82.6%, the viability, T/C [32] was 78.8% and the viability, T/C [33] was 97.1%. For the same compound, the viability, T/C [34] was 94.5%, the viability, T/C [35] was 86.8% and the viability, T/C [36] was 79.7%.
Work on `Nc1ccn(C2OC(CO)C(O)C2(F)F)c(=O)n1` (stereo unspecified) + Cc1cccc(N(C)C(=O)C2C(O)CCN2c2nc(C)cc(C(F)(F)F)c2C#N)c1 yielded an IC50 (second compound 0.0316 µM) of under 0.0316 µM, an IC50 (second compound 0.1 µM) of under 0.0316 µM and an IC50 (second compound 0.316 µM) of under 0.0316 µM. It also gave an IC50 (second compound 1 µM) of under 0.0316 µM, an IC50 (second compound 3.16 µM) of under 0.0316 µM and an IC50 (second compound 10 µM) of under 0.0316 µM. The viability, T/C [1] was 47.1%, the viability, T/C [2] was 50.2% and the viability, T/C [3] was 30.6%. It also gave a viability, T/C [4] of 45.5%, a viability, T/C [5] of 42.4% and a viability, T/C [6] of 43%. The viability, T/C [7] was 48.9%, the viability, T/C [8] was 44% and the viability, T/C [9] was 40.9%. The viability, T/C [10] was 51.4%, the viability, T/C [11] was 44.5% and the viability, T/C [12] was 32.9%. It also gave a viability, T/C [13] of 42.3%, a viability, T/C [14] of 45.2% and a viability, T/C [15] of 37.4%. It also gave a viability, T/C [16] of 44.8%, a viability, T/C [17] of 43.2% and a viability, T/C [18] of 38.3%. The viability, T/C [19] was 37.9%, the viability, T/C [20] was 44.5% and the viability, T/C [21] was 37.6%. The viability, T/C [22] was 47.7%, the viability, T/C [23] was 35.9% and the viability, T/C [24] was 41.5%. The viability, T/C [25] was 38.7%, the viability, T/C [26] was 43.6% and the viability, T/C [27] was 44%. For the same compound, the viability, T/C [28] was 49.3%, the viability, T/C [29] was 34.9% and the viability, T/C [30] was 36.6%. For the same compound, the viability, T/C [31] was 40.6%, the viability, T/C [32] was 41.6% and the viability, T/C [33] was 40.7%. For the same compound, the viability, T/C [34] was 45.1%, the viability, T/C [35] was 43.5% and the viability, T/C [36] was 37.8%.
